The experiment deals with ST2 cells, murine bone marrow-derived stromal cells. Put plainly: Osteoblast differentiation test (ALP activity). The experiment is classed as cell-based. The settings on record: Mus musculus, ST-2, 96 h, at 0.1 μg/mL, control group (0.1% DMSO) = 100%, four days of culturing, read-out: alkaline phosphatase activity. How it is done:
ST2 cells, murine bone marrow-derived stromal cells, (obtained from RIKEN) were used.
In this test, α-MEM media (obtained from GIBCO BRL Cat. No. 10370-021) containing 10% (v/v) of inactivated calf serum (obtained from Hyclone Laboratories, Inc.) and 1% (v/v) of Penicillin-Streptomycin Liquid (obtained from GIBCO BRL Cat. No. 15140-122) (hereinbelow, abbreviated as 10%-FBS-αMEM) were used. In this test, all culturing was performed in a CO2 incubator (37° C., 95% humidity, 5% CO2).
The aforementioned cells were detached with 2 mL of a 0.25% trypsin solution (obtained from GIBCO BRL Cat. No. 15050-065) and dispersed in 10 mL of 10%-FBS-αMEM. Subsequently, the cells were collected by centrifugation (25° C., 800 rpm, five minutes). Then, a cell suspension containing 40000 of the cells/mL of 10%-FBS-αMEM was prepared. The cell suspension was then dispensed into 96-well plates (the product of Falcon), 100 μL per well, at a density of 4000 cells/well, followed by culturing for 24 hours. To the wells, except for the below-described well containing a control group, the compound was dispensed at final concentrations of 0.01, 0.03, 0.1, and 0.3 μg/ml. To the well of a control group, DMSO was dispensed at a final concentration of 0.1% (v/v). After four days of culturing, the activity of alkaline phosphatase (ALP) was measured in each group.
The measurement of ALP activity was performed as follows. That is, the medium in each well of the culture plates was completely removed. Each well was then washed by dispensing 100 μL of Dulbecco's phosphate buffer (obtained from GIBCO BRL Cat. No. 14190-144) and then removing it. A cell lysate solution containing 10 mM MgCl2 and 2% (v/v) TritonX-100 (Sigma) was prepared and dispensed at 50 μL/well, followed by stirring at room temperature for five minutes. An ALP substrate solution containing 50 mM diethanolamine (Wako Pure Chemical Industries, Ltd., Cat. No. 099-03112) and 20 mM p-nitrophenyl phosphate (Wako Pure Chemical Industries, Ltd., Cat. No. 147-02343) was prepared and dispensed at 50 μL/well, and the plates were left to stand at room temperature for 10 minutes. Subsequently, absorbance was measured by a microplate reader (Bio-Rad Laboratories, Inc.). Setting the measurement value of the control group of each plate at 100%, alkaline phosphatase activity (increase (%)) in the test compound-addition group was calculated, which was assessed as the degree of osteoblast differentiation.
For `Fc1ccc2ncc(-c3ccc(OCCOCCOC4CCOCC4)cc3)n2c1` [Example 82], the activity at 0.1 µg/mL was ≥ 200%.
With `OCCOc1ccc(-n2cnc3cc(-c4cn[nH]c4)ccc32)cc1` [Example 54] the figure was ≥ 200%; with `N#Cc1ccc2ncc(-c3ccc(OCCOC[C@H]4COCCO4)cc3)n2c1` [Example 93], ≥ 200%; with `O=C(C1CC1)N1CCC(OCCNc2ccc(-c3cnc4ccccn34)cc2)CC1` [Example 137], ≥ 200%.
The figure for `NC(=O)c1ccc2ncc(-c3ccc(OCCOC4CCOCC4)cc3)n2c1` [Example 19, 3-{4-[2-(Tetrahydro-2H-pyran-4-yloxy)ethoxy]phenyl}imidazo[1,2-a]pyridine-6-carboxamide] is ≥ 200%; for `CC(=O)N1CC=C(c2ccn3c(-c4ccc(OCCO)cc4)cnc3c2)CC1` [Example 66] it is ≥ 200%; for `CN(C)C(=O)c1cccc(-c2ccn3c(-c4ccc(OCCO)cc4)cnc3c2)c1` [Example 106] it is ≥ 200%.
As to `c1ccn2c(-c3ccc(NCCOC4CCOCC4)cc3)cnc2c1` [Example 109], the activity at 0.1 µg/mL was ≥ 200%.
With `OCCOc1ccc(-n2cnc3ccc(Cl)cc32)cc1` [Example 31] the figure was ≥ 200%.
With `Fc1ccc2ncc(-c3ccc(OCCOC[C@H]4COCCO4)cc3)n2c1` [Example 87] the figure was ≥ 200%; with `CS(=O)(=O)Nc1ccc(-c2ccc3c(c2)ncn3-c2ccc(OCCO)cc2)cc1` [Example 53], ≥ 200%; with `COc1ccc2c(-c3ccc(OCCO)cc3)cnn2c1` [Example 125], ≥ 200%.
With `COc1ccc2ncc(-c3ccc(OCCOC4CCOCC4)cc3)n2c1` [Example 20, 6-Methoxy-3-{4-[2-(tetrahydro-2H-pyran-4-yloxy)ethoxy]phenyl}imidazo[1,2-a]pyridine] the figure was ≥ 200%; with `Clc1ccn2c(-c3ccc(OCCOC4CCOCC4)cc3)cnc2c1` [Example 78], ≥ 200%.

Source of the values: patent publication US20130029964A1, “[5, 6] HETEROCYCLIC COMPOUND” (DAIICHI SANKYO COMPANY, LIMITED, priority 2010, published 2013).
